We go through seven molecules from patent US9353188B2, “Modulators of Plexin B2 activity” (President and Fellows of Harvard College, priority 2011, dated 2016).

Like-named read-outs stand apart in the source and are kept apart here. Residues, ends and D or L forms follow the SMILES beside them.

The test system of one assay is LNCaP cells. Put plainly: LNCaP cell proliferation in phenol red-free and steroid-free medium. Type of assay: cell-based, human. The settings on record: for LNCaP cell proliferation: steroid-free medium, DHT 10 nM, ANG 0.1 μg/ml, or a mixture of the two. How it is done:
(A) HUVE and LNCaP cells were cultured at the density indicated, and incubated with 0.1 μg/ml ANG for 2 h. Nuclear ANG were detected by indirect immunofluorescence with 26-2F and Alex 488 labeled 2nd antibody. (B) LNCaP cells were culture in phenol red-free and charcoal/dextran-stripped (steroid-free) FBS for 2 day and stimulated with DHT (10 nM), ANG (0.1 μg/ml), or a mixture of the two for the time indicated. (C) Dose dependence. ANG was added to the cells and cultured for 4 days. Cell numbers were determined with a Coulter counter.
ANG plays a dual role in prostate cancer progression. It not only mediates tumor angiogenesis but also directly stimulates cancer cell proliferation.

The target in another assay is ANG protein (Homo sapiens, UniProt P03950). Put plainly: binding of Plexin B2 peptides to ANG by ELISA and equilibrium dialysis.
ANG protein, sequence (P03950 25-147): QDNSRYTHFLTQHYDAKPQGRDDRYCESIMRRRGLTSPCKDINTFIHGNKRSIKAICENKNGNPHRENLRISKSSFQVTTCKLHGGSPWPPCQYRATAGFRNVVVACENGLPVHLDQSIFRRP
The test system of assay [1] is ANG receptor expressing LNCaP cells. Put plainly: radio receptor assay, binding of 125I-ANG to LNCaP cells. The arrangement: species or system human. The following applies: 4° C., Scatchard analysis. How it is done:
(A) Subconfluent LNCaP cells were incubated with ^125I-ANG at 4° C. for 30 min and bound ANG was determined by a gamma counter. (B) Scatchard plot of the results produced in experiment described in (A).
The thermodynamics of ANG binding to LNCaP cells was determined by a standard radio receptor assay. ANG was labeled with iodine-125 and incubated with ANG receptor expressing LNCaP cells at 4° C.

The subject of assay [2] is Plexin B2 transfectants of COS-7 cells. Description: AKT phosphorylation in Plexin B2 transfectants of COS-7 cells (Western). Type of assay: cell-based, monkey. The following applies: not in vector control, ANG 2 h. Here is the method:
Vector (A-C) and Plexin B2 (D-F) transfected COS-7 cells were incubated with 1 μg/ml ANG for 2 h. ANG was detected by immunofluorescence (A and D). Nuclei were stained by DAPI (B and E). The merged images were shown in C and F. (G) Vector and Plexin B2 transfectants were incubated with ANG at the concentration indicated for 2 h. Cells were lysed, cell lysates (60 μg protein) were subjected for SDS-PAGE and Western analysis for phospho-AKT and total AKT with respective antibodies.
The phosphorylation status of AKT in the Plexin B2 transfectants of COS-7 cells was examined.

Assay [3] shares this test system. Description: nuclear translocation of ANG in Plexin B2-transfected COS-7 cells. Type of assay: cell-based, monkey. The following applies: neomycin 10 min, then 1 μg/ml ANG for 2 h. Here is the method: The Plexin B2 transfectants were treated with neomycin at the concentration indicated for 10 min and then incubated with 1 μg/ml ANG for 2 h. ANG was detected by immunofluorescence (top panels). Nuclei were stained by DAPI (middle panels). The merged images were shown in bottom panels.
The effect of neomycin on Plexin B2 transfectants of COS-7 cells was examined. […] Therefore, transfection of human Plexin B2 cDNA converted COS-7 cells into ANG responsive cells. In term of nuclear translocation of ANG, which is essential for the biological activity of ANG, Plexin B2 transfectants of COS-7 cells act in a similar fashion as do LNCaP cells and sparsely cultured HUVE cells, the two known ANG responsive cell lines.

The subject of assay [4] is ANG receptor expressing LNCaP cells. The following applies: background statement, no data shown; cited from earlier work.

As to `C[C@]12CCC(=O)C[C@@H]1CC[C@@H]1[C@@H]2CC[C@]2(C)[C@@H](O)CC[C@@H]12` [DHT, Dihydrotestosterone, reference compound], the LNCaP cell proliferation entry in the assay with LNCaP cells is listed as “stimulated LNCaP cell proliferation”.
For `CC[C@H](C)[C@H](NC(=O)[C@H](CCC(=O)O)NC(=O)[C@@H](NC(=O)[C@H](CC(C)C)NC(=O)[C@@H](NC(=O)[C@H](CO)NC(=O)[C@H](CC(=O)O)NC(=O)[C@H](Cc1ccc(O)cc1)NC(=O)[C@H](CCC(=O)O)NC(=O)[C@H](CO)NC(=O)[C@H](CO)NC(=O)[C@@H](NC(=O)CN)[C@@H](C)O)[C@@H](C)CC)C(C)C)C(=O)N[C@@H](CC(N)=O)C(=O)N[C@@H](CCCCN)C(=O)N[C@@H](CCCNC(=N)N)C(=O)N[C@H](C(=O)N[C@@H](CCCCN)C(=O)O)C(C)C` [SEQ ID NO: 1, GTSSEYDSILVEINKRVK] (H-GTSSEYDSILVEINKRVK-OH; N-terminus and C-terminus assumed), on ANG protein, the “binding to ANG” value is on record as “able to bind to ANG”.
Regarding “ANG: small, secreted protein Angiogenin, a potent inducer of angiogenesis; human ANG is SEQ ID NO: 5”, the Kd was 0.45 nM in assay [1] (read-out: apparent Kd, first ANG binding site) and 170 nM in assay [1] (read-out: apparent Kd, second ANG binding site). In assay [2], the AKT phosphorylation result is recorded as “induced AKT phosphorylation”. In addition, the “LNCaP cell proliferation, dose dependence” value with LNCaP cells (cultured for 4 days, cell numbers by Coulter counter) is given as “stimulated LNCaP cell proliferation in a dose-dependent manner”. For the same molecule, the LNCaP cell proliferation entry in the assay on LNCaP cells is on record as “stimulated LNCaP cell proliferation in the absence of androgen”.
Take “LDKVHAKMEANRNAC (listed as Homo sapiens) [SEQ ID NO: 2]”: the “binding to ANG” value with ANG protein is listed as “able to bind to ANG”.
Same read-out and setting: for “RDGLRGTAVLQRGGLNL (listed as Homo sapiens) [SEQ ID NO: 3]” the value was “able to bind to ANG”.
Regarding neomycin, in assay [3], the “nuclear translocation of ANG” value is “inhibits nuclear translocation of ANG in the Plexin B2 transfectants of COS-7 cells in a dose-dependent manner”.

B1: RNase A: protein with 35% amino acid identity to ANG, used on Sepharose column to remove non-specific proteins (protein, UniProt P61823 27-150, looked up)
Ribonuclease pancreatic: KETAAAKFERQHMDSSTSAASSSNYCNQMMKSRNLTKDRCKPVNTFVHESLADVQAVCSQKNVACKNGQTNCYQSYSTMSITDCRETGSSKYPNCAYKTTQANKHIIVACEGNPYVPVHFDASV
With B1, the “binding to the LNCaP cell surface” value in assay [4] was “does not bind to the LNCaP cell surface”.
